Patent US20100069325A1, “Pharmaceutical composition for treatment of chronic liver diseases and use thereof” (priority 2008, published 2010)

What was measured:
[1] = system: rats having DMN-induced liver fibrosis; experiment: Comparison of therapeutic effect between composition and single component on rats having DMN-induced liver fibrosis (Example 5); type: in vivo, SD rats; conditions: DMN model; for ALT (activity of blood serum) / AST (activity of blood serum) / GGT (activity of blood serum) / Hyp (content in liver tissues) / Tbil (content of blood serum): gavage, two weeks of treatment, x ± s; for Degree of liver fibrosis S0 (number of rats) / Degree of liver fibrosis S1 (number of rats) / Degree of liver fibrosis S2 (number of rats) / Degree of liver fibrosis S3 (number of rats) / Degree of liver fibrosis S4 (number of rats): HE and Sirius red staining, S0-S4 staging; for Degree of liver fibrosis S0 (number of rats): stage S0; for Degree of liver fibrosis S1 (number of rats): stage S1; for Degree of liver fibrosis S2 (number of rats): stage S2; for Degree of liver fibrosis S3 (number of rats): stage S3; for Degree of liver fibrosis S4 (number of rats): stage S4
Text: Modeling and grouping: 80 SD rats were randomly divided into a normal group (6) and modeling groups (74). The modeling method was the same as that in Example 1. Four weeks later, 4 rats from the modeling group died. The remaining […] rats were randomly divided into a model group, a Composition A group, groups having a single component of Composition A, a first control group of Fuzhenghuayu capsule, and a second control group of colchicines, each group 10 rats. The administered dose of colchicines was 0.1 mg/Kg, Fuzhenghuayu capsule 4.6 g/Kg. The Composition A group was administered Cordyceps sinensis polysaccharide 60 mg/Kg, Gypenoside 50 mg/Kg, and Amygdaloside 80 mg/Kg. The administered dose of the Gypenoside group was 200 mg/Kg, Amygdaloside 80 mg/Kg, and Cordyceps sinensis polysaccharide 60 mg/Kg. Each group was administered by gavage in a volume of 10 mL/Kg. The model group was administered the same volume of drinking water. After two weeks of treatment, the remaining 61 rats were anesthetized by intraperitoneal injection of 2% pentobarbital sodium. […] Liver tissue was also collected in centrifuge tubes (1.5 mL) for analyzing. Two liver tissues from a hepatic lobule was collected and immersed in a formalin solution for testing.
Observing index and method: the content of hydroxyproline (Hyp) in liver tissues (Jamall's method); liver function of blood serum; liver tissues were stained with HE and Sirius red respectively to determine the degree of liver fibrosis according to the S0-S4 staging criteria in literatures.
The obtained data was expressed as x±s and analysed statistically with software SPSS 12.0 for variance analysis and comparison between groups. The comparison of ranked data between groups was performed by Ridit analysis.

[2] = system: rats having CCl4-induced liver fibrosis; experiment: Comparison of therapeutic effect between composition and single component on rats having CCl4-induced liver fibrosis (Example 6); type: in vivo, SD rats; conditions: CCl4 model; for ALT (activity of blood serum) / AST (activity of blood serum) / Alb (content of blood serum) / GGT (activity of blood serum) / Hyp (content in liver tissues) / Tbil (content of blood serum): SD rats, three weeks of treatment while modeling, x ± s
Text: Modeling and grouping: 86 SD rats were randomly divided into a normal group (6) and modeling groups (80). The modeling method was the same as that in Example 2. Six weeks later, 2 rats from the modeling group died. The remaining 78 rats were randomly divided into a model group (12), a Composition A group (11), groups having a single component of Composition A (each group with 11 rats), a first control group of Fuzhenghuayu capsule (11), and a second control group of colchicine (11). The administered dose was the same as those in Example 5. After three weeks of treatment while modeling, the remaining […] rats were anesthetized by intraperitoneal injection of 2% pentobarbital sodium. […] Liver tissue was also collected in centrifuge tubes (1.5 mL) for analyzing. Two liver tissues from a hepatic lobule was collected and immersed in a formalin solution for testing.
Observing index and method: the same as those in Example 5.
The obtained data was expressed as x±s and analysed statistically with software SPSS 12.0 for variance analysis and comparison between groups.

| Compound | effect on DMN-induced liver fibrosis (in words) ([1]; SD rats) | ALT (activity of blood serum) ([1]; SD rats) [U · ml^−1] | AST (activity of blood serum) ([1]; SD rats) [U · ml^−1] | GGT (activity of blood serum) ([1]; SD rats) [U · ml^−1] | Hyp (content in liver tissues) ([1]; SD rats) [μg · g^−1 liver weight] | Tbil (content of blood serum) ([1]; SD rats) [mg/dL] | Degree of liver fibrosis S0 (number of rats) [1] | Degree of liver fibrosis S1 (number of rats) [1] | Degree of liver fibrosis S2 (number of rats) [1] | Degree of liver fibrosis S3 (number of rats) [1] | Degree of liver fibrosis S4 (number of rats) [1] | ALT (activity of blood serum) [2] | AST (activity of blood serum) [2] | Alb (content of blood serum) [2] | GGT (activity of blood serum) [2] [U · ml^−1] | Hyp (content in liver tissues) [2] | Tbil (content of blood serum) [2] [mg/dL] | collagen fibers, Sirius red staining of liver tissues ([1]; compared with the model group, FIG. 1) | collagen fibers, Sirius red staining of liver tissues ([2]; compared with the model group, FIG. 2) |
| --- | --- | --- | --- | --- | --- | --- | --- | --- | --- | --- | --- | --- | --- | --- | --- | --- | --- | --- | --- |
| N#C[C@H](O[C@@H]1O[C@H](CO[C@@H]2O[C@H](CO)[C@@H](O)[C@H](O)[C@H]2O)[C@@H](O)[C@H](O)[C@H]1O)c1ccccc1 [Amygdaloside] | can weaken the DMN-induced liver fibrosis | 55.39 ± 15.56 | 69.13 ± 15.74 | 37.01 ± 19.92 | 323 ± 79 | 0.95 ± 0.58 | 0 | 1 | 4 | 3 | 0 | 220.8 ± 47.4 ## U · ml^−1 | 249.1 ± 47.4 U · ml^−1 | 23.67 ± 2.84 g/L | 16.10 ± 6.74 | 403 ± 89 # μg · g^−1 liver weight | 0.85 ± 0.23 | – | – |
| COc1cc2c(c(OC)c1OC)-c1ccc(OC)c(=O)cc1[C@@H](NC(C)=O)CC2 [Colchicine] | – | 47.55 ± 17.47 | 62.81 ± 13.04 | 31.30 ± 17.21 | 300 ± 47 | 0.86 ± 0.56 | 0 | 1 | 5 | 2 | 0 | 192.6 ± 60.9 # U · ml^−1 | 220.9 ± 60.9 # U · ml^−1 | 24.59 ± 2.11 ## g · l^−1 | 13.87 ± 9.13 | 373 ± 112 μg · g^−1 liver weight | 0.74 ± 0.25 | decreased as compared with the model group | decreased as compared with the model group |
